# Test results reported in US20240059729A1, “MULTIFUNCTIONAL CYCLIC DINUCLEOTIDE AND USE THEREOF” (TYLIGAND BIOSCIENCE (SHANGHAI) LIMITED, priority 2020, published 2024).
# Structures can show the parent of a compound that is named as a salt.
# Experiment: Hepatocyte metabolic stability assay
# Assay type: in vitro ADME
# Details: 5 species of hepatocytes (mouse, rat, dog, monkey, human); FIG. 4A
# Description: The compounds of the invention were similarly tested for hepatocyte metabolic stability in 5 species (mouse, rat, dog, monkey, human) according to standard methods of in vitro metabolic stability studies conventional in the art, for example (Kems, Edward H. and Di Li (2008). Drug-like Properties: Concepts, Structure Design and Methods: From ADME to Toxicity Optimization, San Diego: Academic Press; Di, Li et al, Optimization of a High Throughput Microsomal Stability Screening Assay for Profiling Drug Discovery Candidates, J Biomol Screen. 2003, 8(4), 453).
# The hepatocytes used in the experiment: human hepatocytes (SHQY, Lot #HEP190006), dog hepatocytes (IVT, Lot #ZMB); monkey hepatocytes (Xenotech, Lot #2010022), rat hepatocytes (SHQY, Lot #HEP134045), and mouse hepatocytes (BioIVT, Cat. #M005052, Lot. #MEO).
# Cryopreserved hepatocyte tubes were removed from a liquid nitrogen tank and immediately placed ill in a shaking water bath at 37±1° C. for 2 minutes±15 seconds. […] The supernatant was aspirated without touching the cell pellet, and cell viability and number were determined. The hepatocytes were counted and then the cell suspension was diluted in KHB buffer to the appropriate density (viable cell density=2×10^6 cells/mL). […]
compound,measurement,value
"Nc1nc2c(ncn2[C@@H]2O[C@@H]3CO[P@@](=O)(S)OC4C(F)[C@H](n5cnc6c(N)nc(Cl)nc65)O[C@@H]4CO[P@@](=O)(S)OC2C3O)c(=O)[nH]1 (stereo partly drawn) [Example 10, (2′,3′)-cyclo-(Rp,Rp)-[2′-O-phosphorothioate-diester-guanosine]-[3′-O-phosphorothioate-diester-2-chloro-2′-deoxy-2′-fluoro-beta-adenosine] diammonium salt]",Hepatocyte metabolic stability (in words),good metabolic stability
